Laboratory results: ChEMBL document CHEMBL3039007, “Structure-based identification of OATP1B1/3 inhibitors” (Mol Pharmacol, 2013)

Tests used:
[1] = target: T1, Solute carrier organic anion transporter family member 1B3 (Homo sapiens, UniProt Q9NPD5); settings: chinese hamster, cho, 10 µM
T1 sequence (Q9NPD5 whole entry): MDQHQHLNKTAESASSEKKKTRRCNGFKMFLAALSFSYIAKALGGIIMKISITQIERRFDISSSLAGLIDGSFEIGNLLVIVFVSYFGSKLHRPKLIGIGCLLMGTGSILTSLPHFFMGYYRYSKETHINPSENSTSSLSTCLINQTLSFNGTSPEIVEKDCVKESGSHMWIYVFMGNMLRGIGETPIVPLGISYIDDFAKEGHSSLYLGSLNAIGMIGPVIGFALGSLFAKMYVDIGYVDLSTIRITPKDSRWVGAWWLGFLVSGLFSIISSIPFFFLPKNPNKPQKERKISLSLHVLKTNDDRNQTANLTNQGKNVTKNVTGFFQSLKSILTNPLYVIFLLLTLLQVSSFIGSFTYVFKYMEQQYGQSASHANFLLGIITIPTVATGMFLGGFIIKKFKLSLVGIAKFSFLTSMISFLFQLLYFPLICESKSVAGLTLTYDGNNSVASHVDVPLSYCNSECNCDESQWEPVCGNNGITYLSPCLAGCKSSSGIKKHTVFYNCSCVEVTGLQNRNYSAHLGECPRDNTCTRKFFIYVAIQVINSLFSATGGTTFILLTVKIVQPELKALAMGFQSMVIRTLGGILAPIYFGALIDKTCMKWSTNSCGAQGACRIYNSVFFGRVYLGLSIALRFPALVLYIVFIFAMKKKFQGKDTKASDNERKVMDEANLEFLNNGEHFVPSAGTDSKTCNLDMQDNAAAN

[2] = target: T2, Solute carrier organic anion transporter family member 1B1 (Homo sapiens, UniProt Q9Y6L6); settings: chinese hamster, cho, 10 µM
T2 sequence (Q9Y6L6 whole entry): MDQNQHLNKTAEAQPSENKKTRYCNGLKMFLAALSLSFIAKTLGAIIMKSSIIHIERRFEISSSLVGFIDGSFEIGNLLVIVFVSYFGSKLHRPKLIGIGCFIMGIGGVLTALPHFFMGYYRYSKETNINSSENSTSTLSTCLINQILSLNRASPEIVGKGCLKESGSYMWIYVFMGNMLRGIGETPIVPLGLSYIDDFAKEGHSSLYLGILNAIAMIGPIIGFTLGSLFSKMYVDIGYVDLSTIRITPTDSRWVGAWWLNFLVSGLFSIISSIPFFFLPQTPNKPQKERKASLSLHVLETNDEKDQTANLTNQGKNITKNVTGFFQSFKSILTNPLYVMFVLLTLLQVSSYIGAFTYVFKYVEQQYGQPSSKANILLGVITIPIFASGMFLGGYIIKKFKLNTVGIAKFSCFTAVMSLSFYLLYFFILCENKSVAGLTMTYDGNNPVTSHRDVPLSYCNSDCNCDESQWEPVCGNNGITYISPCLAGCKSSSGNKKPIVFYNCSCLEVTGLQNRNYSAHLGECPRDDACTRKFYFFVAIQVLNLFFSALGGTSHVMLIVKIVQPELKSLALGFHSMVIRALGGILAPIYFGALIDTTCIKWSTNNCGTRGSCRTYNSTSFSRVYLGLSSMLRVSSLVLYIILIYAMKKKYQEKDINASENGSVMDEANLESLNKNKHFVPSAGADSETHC

| residual activity [1] | residual activity [2] | SMILES |
| --- | --- | --- |
| 115.2% | 69.97% | CCC[C@@H]1C[C@@H](C(=O)N[C@@H]([C@H]2O[C@H](SC)[C@H](O)[C@@H](O)[C@H]2O)[C@H](C)Cl)N(C)C1.Cl [CLINDAMYCIN HYDROCHLORIDE] |
| 83.73% | 79.63% | O=C(O)c1cccnc1Nc1cccc(C(F)(F)F)c1 [NIFLUMIC ACID] |
| 103% | 118.7% | COc1cc(NS(=O)(=O)c2ccc(N)cc2)nc(OC)n1 [SULFADIMETHOXINE] |
| 105.8% | 89.48% | NC(Cc1c[nH]cn1)C(=O)Nc1ccc2ccccc2c1 (stereo not drawn) |
| 141.5% | 69.17% | O=c1cc(-c2ccc(O)cc2)oc2cc(O[C@@H]3O[C@H](CO)[C@@H](O)[C@H](O)[C@H]3O[C@@H]3OC[C@](O)(CO)[C@H]3O)cc(O)c12 [APIIN] |
| 90.27% | 86.58% | NS(=O)(=O)c1cc(C(=O)O)c(NCc2ccco2)cc1Cl [FUROSEMIDE] |
| 111.5% | 101.4% | CC(=O)Oc1ccc2c(c1OC(C)=O)OC[C@]1(O)Cc3c(cc(OC(C)=O)c(OC(C)=O)c3OC(C)=O)[C@H]21 |
| 106.7% | 63.69% | CC(=O)OCC(=O)[C@@]1(O)CC[C@H]2[C@@H]3CCC4=CC(=O)C=C[C@]4(C)[C@H]3[C@@H](O)C[C@@]21C [PREDNISOLONE ACETATE] |
| 90.35% | 103.6% | Cn1c(=O)c2c(ncn2C)n(C)c1=O [CAFFEINE] |
| 111.3% | 144.2% | CC(=O)NCCCCCC(=O)O [ACEXAMIC ACID] |
| 129.3% | 128.5% | CCCc1occc(=O)c1/C=C/O [2-PROPYL-3-HYDROXYETHYLENEPYRAN-4-ONE] |
| 97.7% | 83.01% | CCC[C@@H]1C[C@@H](C(=O)N[C@@H]([C@H]2O[C@H](SC)[C@H](O)[C@@H](O)[C@H]2O)[C@@H](C)O)N(C)C1.Cl.O [LINCOMYCIN HYDROCHLORIDE] |
| 78.08% | 52.29% | CC(C)/C(O)=C1/C(=O)O[C@@H](c2ccoc2)[C@]2(C)C(O)[C@@H](O)[C@@]34OC5(C)OC67CC(C)(C(O)[C@]6(O)[C@@H](O)[C@]3(O5)C12)[C@H](CC(=O)O)[C@]74C (stereo partly drawn) [HYDROLYSIS PRODUCT OF BUSSEIN] |
| 25.64% | 34.01% | C[C@@H]1C[C@H]2[C@@H]3CCC4=CC(=O)C=C[C@]4(C)[C@@]3(Cl)[C@@H](O)C[C@]2(C)[C@@]1(OC(=O)c1ccco1)C(=O)CCl [MOMETASONE FUROATE] |
| 73% | 43.76% | CCCC1O[C@@H]2C[C@H]3[C@@H]4CCC5=CC(=O)C=C[C@]5(C)[C@H]4[C@@H](O)C[C@]3(C)[C@]2(C(=O)CO)O1 (stereo partly drawn) [BUDESONIDE] |

Further lines, the compound ahead of its results:

| SMILES | residual activity [1] | residual activity [2] |
| --- | --- | --- |
| NS(=O)(=O)c1cc2c(cc1C(F)(F)F)NCNS2(=O)=O [HYDROFLUMETHIAZIDE] | 85.97% | 82.22% |
| Oc1ccc(Cl)cc1 [PARACHLOROPHENOL] | 100.4% | 89.66% |
| CNC(=O)Oc1cccc2c1OC(C)(C)O2 [BENDIOCARB] | 84.46% | 88.1% |
| CC(=O)Nc1ccc(OCC(O)CNC(C)C)cc1 (stereo not drawn) [PRACTOLOL] | 99.03% | 107.1% |
| CC(=O)O[C@]1(C(C)=O)CC[C@H]2[C@@H]3C[C@H](C)C4=CC(=O)CC[C@]4(C)[C@H]3CC[C@@]21C [MEDROXYPROGESTERONE ACETATE] | 104.4% | 105.9% |
| O=C(CCCN1CCC2(CC1)C(=O)NCN2c1ccccc1)c1ccc(F)cc1 [SPIPERONE] | 108.9% | 168.8% |
| COC(=O)Nc1nc2ccc([S+]([O-])c3ccccc3)cc2[nH]1 (stereo not drawn) [OXFENDAZOLE] | 114.2% | 95.15% |
| Cc1cccc(CN2CCN(C(c3ccccc3)c3ccc(Cl)cc3)CC2)c1.Cl.O (stereo not drawn) | 79.23% | 80.22% |
| CC(C)(C)C(=O)C(Oc1ccc(Cl)cc1)n1cncn1 (stereo not drawn) [TRIADIMEFON] | 87.3% | 75.79% |
| c1cc2c(cc1[C@H]1OC[C@H]3[C@@H]1CO[C@H]3c1ccc3c(c1)OCO3)OCO2 [ASARININ] | 116.8% | 107.7% |
| Cc1cc(NS(=O)(=O)c2ccc(N)cc2)no1 [SULFAMETHOXAZOLE] | 94.47% | 104.3% |
| COC(=O)N/N=C/c1c[n+]([O-])c2ccccc2[n+]1[O-] [CARBADOX] | 107.6% | 84.43% |
| CCCn1c(=O)c2[nH]c(C3CCCC3)nc2n(CCC)c1=O [1,3-DIPROPYL-8-CYCLOPENTYLXANTHINE [DPCPX]] | 117.3% | 264.1% |
| COc1nc(NC(C)C)nc(NC(C)C)n1 [PROMETON] | 102.5% | 114.4% |
| CCC(=O)O[C@]1(C(=O)CCl)[C@@H](C)C[C@H]2[C@@H]3CCC4=CC(=O)C=C[C@]4(C)[C@@]3(F)[C@@H](O)C[C@@]21C [CLOBETASOL PROPIONATE] | 21.34% | 20.25% |
| C[C@H](CCC(=O)O)[C@H]1CC[C@H]2[C@@H]3CC[C@@H]4C[C@H](O)CC[C@]4(C)[C@H]3C=C[C@]12C | 112% | 23.69% |
| Cn1nnnc1SCC1=C(C(=O)[O-])N2C(=O)[C@@H](NC(=O)[C@H](OC=O)c3ccccc3)[C@H]2SC1.[Na+] [CEFAMANDOLE NAFATE] | 64.97% | 63% |
| CC(=O)c1ccc[nH]1 [2-ACETYLPYRROLE] | 98.29% | 111.7% |
| C[C@@H]1CC[C@@]2(OC1)O[C@H]1C[C@H]3[C@@H]4CC=C5C[C@@H](O)CC[C@]5(C)[C@H]4CC[C@]3(C)[C@H]1[C@@H]2C [DISOGENIN] | 85.35% | 85.54% |
| Cc1cc(/C=C/c2ccc3cc(N(C)C)ccc3[n+]2C)c(C)n1-c1ccccc1.Cc1cc(/C=C/c2ccc3cc(N(C)C)ccc3[n+]2C)c(C)n1-c1ccccc1.O=C([O-])c1cc2ccccc2c(Cc2c(O)c(C(=O)[O-])cc3ccccc23)c1O [PYRVINIUM PAMOATE] | 32.66% | 42.61% |
| CC(=O)OCC(=O)[C@@]1(O)CC[C@H]2[C@@H]3CCC4=CC(=O)CC[C@]4(C)[C@H]3C(=O)C[C@@]21C [CORTISONE ACETATE] | 98.8% | 103.3% |
| CC1=CC2C(CC1=O)C(C)=CCC2C(C)C (stereo not drawn) [MUUROLLADIE-3-ONE] | 117.6% | 267.7% |
| CC1(C)C(=O)[C@H]2C[C@]3(O)C4=CC(=O)O[C@@H](c5ccoc5)[C@@]4(C)CCC3[C@](C)(C2=O)[C@H]1CC(=O)O (stereo partly drawn) [8-HYDROXYCARAPINIC ACID] | 78.38% | 73.89% |
| CCCC(CCC)C(=O)[O-].[Na+] [VALPROATE SODIUM] | 125.1% | 90.61% |
| CN(C)C(=O)Oc1ccc[n+](C)c1.[Br-] [PYRIDOSTIGMINE BROMIDE] | 112% | 96.49% |
| CC(C)(Oc1ccc(Cl)cc1)C(=O)O [CLOFIBRIC ACID] | 99.14% | 111.2% |
| O=C(O)c1cc(O)c(O)c(O)c1 [GALLIC ACID] | 91.35% | 67.94% |
| O=C(NCO)c1cccnc1 [N-HYDROXYMETHYLNICOTINAMIDE] | 92.24% | 121.9% |
| CC(C)CCCCCOC(=O)COc1cc(Cl)c(Cl)cc1Cl | 93.76% | 105.5% |
